10 compounds from patent publication US20170305882A1, “BENZYL SUBSTITUTED INDAZOLES AS BUB1 KINASE INHIBITORS” (Bayer Pharma Aktiengesellschaft, priority 2014, published 2017) can be followed below.

In series [1] the test system is pre-induced phospho-histone 2A (kinase activity of Bub1). In words: H2A Abrogation-Assay (cell-based mechanistic assay, pre-treatment with Nocodazole). To be noted: Nocodazole 16 h, then test compound 1 h; read-out: Biological Assay 4:2: H2A Abrogation IC50. From the text:
Biological Assay 4.2: Abrogation-Assay
This assay measures the inhibition of histone 2A phosphorylation, which was induced by pre-treatment of the cells with Nocodazole, by a Bub1 kinase inhibitor.

The test system of series [2] is HeLa human cervical tumor cells. In words: Proliferation assay (HeLa cell line). It is filed as cell-based. The note with it: 96 h, 4 days incubation, crystal violet, read-out: Biological Assay 2: Proliferation assay (HeLa cell line) median IC50. The source says:
Human tumour cells were originally obtained from the American Type Culture Collection (ATCC), the Deutsche Sammlung von Mikroorganismen und Zellkulturen (DSMZ, German Collection of Microorganisms and Cell Cultures), or Epo GmbH Berlin.

The target in series [3] is T1, (recombinant) catalytic domain of human Bub1 (amino acids 704-1085) (Homo sapiens, UniProt O43683).
T1 construct: catalytic domain of human Bub1 (amino acids 704-1085); 6xHis (N); made in house; host or cells: Hi5 insect cells
In words: Bub1 kinase assay (TR-FRET). Type of series: biochemical. On the technique in general: In TR-FRET formats the signal depends on donor and acceptor labels being close together.

Series [4] relates to histone 2A phosphorylation (kinase activity of Bub1). In words: H2A Formation-Assay (cell-based mechanistic assay, co-treatment with Nocodazole). To be noted: 16 h, read-out: Biological Assay 4.1: H2A Formation IC50.
Series [5] relates to HeLa human cervical tumor cells. In words: Proliferation Assay (HeLa + Paclitaxel). Type of series: cell-based. To be noted: 3 nM paclitaxel, test substance 92 hours; read-out: Biological Assay 3: Proliferation Assay (HeLa + Paclitaxel) IC50. The source says: Proliferation Assay (HeLa+Paclitaxel):
A short description of series [6]: Stability in buffer at various pH values (HPLC detection). It is filed as physicochemical. Here is the method: Stability in Buffer at Various pH Values (HPLC Detection)
0.3 mg of the test compound was solved in 0.1 ml dimethylsulfoxide and 0.4 ml acetonitrile. For complete dissolution the HPLC vial with the sample solution was sonified for about 20 seconds. Then 1.0 ml of the respective buffer solution was added and the sample was again treated in the ultrasonic bath.
Buffer Solutions Used: • pH 4.0: Fluka buffer, Order No. 33643 (11.76 g citric acid, 2.57 g sodium chloride and 2.72 g sodium hydroxide)
pH 7.4: 90 g of sodium chloride, 13.61 g of potassium dihydrogen phosphate and 83.35 g of 1 M sodium hydroxide solution were made up to 1 L with Millipore water and then diluted 1:10.
10 μl portions of the sample solution were analysed by HPLC at different times (0 h, 1 h, 2 h, 4 h and 24 h) at 37° C. The peak areas in percentage were used for quantification.
Agilent 1100 with DAD (G1315B), binary pump (G1312A), autosampler (G1329A), column oven (G1316A), thermostat (G1330B); column: Kromasil 100 C18, 250 mm×4 mm, 5 μm; column temperature: 37° C.; eluent A: water+5 ml of perchloric acid/litre, eluent B: acetonitrile.
The ratios of the peak area (F) at different times in relation to the peak area at the starting point are shown in Table 3 for representative examples: […]

For series [7], the target named is T1, (recombinant) catalytic domain of human Bub1 (amino acids 704-1085). In words: Equilibrium probe competition assay (TR-FRET kinase binding assay). To be noted: read-out: IC50 (Assay 5, probe competition). From the text:
Equilibrium Probe Competition Assay:
Bub1 binding affinity of compounds described in the present invention were quantified using a time-resolved fluorescence energy transfer (TR-FRET) kinase binding assay which measures displacement of the synthetic fluorescent probe 5-[({2-[2-({2-[1-(4-ethoxy-2,6-difluorobenzyl)-1H-indazol-3-yl]-4-(pyridin-4-ylamino)pyrimidin-5-yl}oxy)ethoxy]ethyl}carbamothioyl)amino]-2-(6-hydroxy-3-oxo-3H-xanthen-9-yl)benzoic acid (5-5-1) by the (recombinant) catalytic domain of human Bub1 (amino acids 704-1085). The enzyme was expressed in Hi5 insect cells with N-terminal 6×His/AviTag@ seqences, purified by affinity-(Ni-NTA) and size exclusion chromatography and site-specific biotinylated ex-vivo using a commercially available kit (Avidity).
In a typical assay 11 different concentrations of each compound (0.1 nM, 0.33 nM, 1.1 nM, 3.8 nM, 13 nM, 44 nM, ˜0.15 μM, ˜0.51 μM, ˜1.7 μM, 5.9 μM and 20 μM) were tested in duplicate within the same microtiter plate. To this end, 100-fold concentrated compound solutions (in DMSO) were made by serial dilution (1:3.4) of freshly prepared 2 mM stocks in a clear low volume 384-well source microtiter plate (Greiner Bio-One, Frickenhausen, Germany), from which 50 nl of compounds were transferred into a black low volume test microtiter plate from the same supplier. Subsequently 2 μL of a solution containing biotinylated Bub1 (the final concentration of Bub1 was adjusted depending on the activity of the enzyme lot in order to be within the linear dynamic range of the assay: typically ˜200 pM were used) and 1 nM Streptavidin Terbium Cryptate (Cisbio, No. 610SATLB) in aqueous assay buffer [50 mM Tris/HCl pH 7.5, 200 mM potassium chloride (KCl), 1.0 mM dithiothreitol (DTT), 0.1 mM sodium ortho-vanadate, 1% (v/v) glycerol, 0.01% (w/v) bovine serum albumine (BSA), 0.005% (v/v) Triton X-100 (Sigma), were added to the compounds in the test plate and the mixture was incubated for 15 min at 22′C to allow pre-equilibration of the putative enzyme-inhibitor complexes before the start of the probe competition reaction, which was initiated by the addition of 3 μL 1.67-fold concentrated solution (in assay buffer) of 5-5-1 (final concentration: 1.5 nM). The resulting mixture (5 μL final volume) was Incubated at 220 during 0, 15, 30, 60, 120, 240 and 1440 min. After each time point the resonance energy transfer from the Streptavidin Tb cryptate to the 3′,6′-dihydroxy-3H-spiro[2-benzofuran-1,9′-xanthen]-3-one moiety of 5-5-1 was measured in order to quantify the amount of fluorescent probe displaced by the test compounds. To this end, the fluorescence emissions at 520 nm and 490 nm after excitation at 330-350 nm were measured in a Pherastar FS TR-FRET plate reader, (BMG Lab technologies, Offenburg, Germany) and the ratio of the emissions (520 nm/490 nm) was taken as Indicator for the amount of Bub1/5-5-1 equilibrium complexes. The data were normalized using two sets of control wells for high-(=enzyme reaction without inhibitor=0%=Minimum inhibition) and low-(=all assay components without enzyme=100%=Maximum inhibition) Bub1 activity. IC50 values were calculated by fitting the normalized inhibition data to a 4-parameter logistic equation (Minimum, Maximum, IC50, Hill; Y=Max+(Min−Max)/(1+(X/IC50)Hill)).

Where [8] appears, read: ATP 10 μM, 60 min reaction, pH 7.5, read-out: Biological Assay 1: Bub1 kinase assay median IC50.

Molecules are shown by their SMILES. Counter-ions that a name gives are not always drawn.

Regarding `CCOc1cc(F)c(Cn2nc(-c3ncc(OCCCO)c(Nc4ccncc4C)n3)c3ccccc32)c(F)c1` [Example 2-1-2, 3-({2-[1-(4-ethoxy-2,6-difluorobenzyl)-1H-indazol-3-yl]-4-[(3-methylpyridin-4-yl)amino]pyrimidin-5-yl}oxy)propan-1-ol], the IC50 was 17 nM in series [1], 3700 nM in series [2], 10 nM in series [3] (setting [8]) and 31 nM in series [4].
With `CCOc1cc(F)c(Cn2nc(-c3ncc(OCCCO)c(Nc4cc(NC(C)=O)ncc4C)n3)c3ccccc32)c(F)c1` [Example 2-1-12, N-[4-({2-[1-(4-ethoxy-2,6-difluorobenzyl)-1H-indazol-3-yl]-5-(3-hydroxypropoxy)pyrimidin-4-yl}amino)-5-methylpyridin-2-yl]acetamide], the IC50 in series [3] (setting [8]) came to 35 nM.
Same read-out and setting: the value for `CCOc1cc(F)c(Cn2nc(-c3ncc(OCCCO)c(Nc4cc(C)ncc4F)n3)c3ccccc32)c(F)c1` [Example 2-1-16, 3-({2-[1-(4-Ethoxy-2,6-difluorobenzyl)-1H-indazol-3-yl]-4-[(5-fluor-2-methylpyridin-4-yl)amino]pyrimidin-5-yl}oxy)propan-1-ol] was 16 nM.
`CCOc1cc(F)c(Cn2nc(-c3ncc(OCCCO)c(Nc4ccncc4OCC(F)(F)F)n3)c3ccccc32)c(F)c1` [Example 2-1-22, 3-[(2-[1-(4-ethoxy-2,6-difluorobenzyl)-1H-indazol-3-yl]-4-{[3-(2,2,2-trifluoroethoxy)pyridin-4-yl]amino}pyrimidin-5-yl)oxy]propan-1-ol]: the IC50 in series [2] was 1390 nM; in series [3] (setting [8]), 5.7 nM; in series [5], 180 nM.
In the case of `Cc1cc(Nc2nc(-c3nn(Cc4c(F)cc(OCC5CC5)cc4F)c4ccccc34)ncc2OCCCO)c(C)cn1` [Example 2-1-23, 3-[(2-{1-[4-(cyclopropylmethoxy)-2,6-difluorobenzyl]-1H-indazol-3-yl}-4-[(2,5-dimethylpyridin-4-yl)amino]pyrimidin-5-yl)oxy]propan-1-ol], the IC50 came out at 2320 nM in series [2], 15 nM in series [3] (setting [8]) and 300 nM in series [5].
In the same order, the values of `CC(=O)Nc1cc(Nc2nc(-c3nn(Cc4c(F)cc(OCC(F)(F)F)cc4F)c4ccccc34)ncc2OCCCO)ccn1` [Example 2-1-25, N-(4-{[2-{1-[2,6-difluoro-4-(2,2,2-trifluoroethoxy)benzyl]-1H-indazol-3-yl}-5-(3-hydroxypropoxy)pyrimidin-4-yl]amino}pyridin-2-yl)acetamide] are 1360 nM, 19 nM and 200 nM.
Turning to `COCCOc1cc(F)c(Cn2nc(-c3ncc(OCCCO)c(Nc4ccncn4)n3)c3ccccc32)c(F)c1` [Example 2-1-27, 3{[2-{1-[2,6-difluoro-4-(2-methoxyethoxy)benzyl]-1H-indazol-3-yl}-4-(pyrimidin-4-ylamino)pyrimidin-5-yl]oxy}propan-1-ol], in series [3] (setting [8]), the IC50 is 4 nM.
On to `CCOc1cc(F)c(Cn2nc(-c3ncc(OCCCOC(=O)[C@H](C)NC(=O)[C@@H](N)CCCCN)c(Nc4ccncc4Cl)n3)c3ccccc32)c(F)c1` [Example 4-1-5, 3-({4-[(3-chloropyridin-4-yl)amino]-2-[1-(4-ethoxy-2,6-difluorobenzyl)-1H-indazol-3-yl]pyrimidin-5-yl}oxy)propyl L-lysyl-L-alaninate, salt with trifluoroaceticacid], for which the recovery at 60 min, 0.2 mg/mL in series [6] (Time 60 min, read-out: Recovery (Assay 6, prodrug stability)) stood at 81%. The recovery at 120 min, 0.2 mg/mL in series [6] (Time 120 min, read-out: Recovery (Assay 6, prodrug stability)) was 65%. Moreover, the recovery at 240 min, 0.2 mg/mL in series [6] (Time 240 min, read-out: Recovery (Assay 6, prodrug stability)) stood at 42%. In series [6] (Time 1440 min, read-out: Recovery (Assay 6, prodrug stability)), the recovery at 1440 min, 0.2 mg/mL came to 0%. In series [6] (pH 4, 4 h, 37° C., prodrug remaining), the “Stability pH4: % Test Compound after 4 h [F(t = 4 h) × 100/F(t = 0 h)]” value is given as 101%. The “Stability pH7.4: % Test Compound after 4 h [F(t = 4 h) × 100/F(t = 0 h)]” value in series [6] (pH 7.4, 4 h, 37° C., prodrug remaining) is given as 42%. In addition, the IC50 was determined as 1.5 nM in series [7] (Time 15 min); 0.82 nM in series [7] (Time 30 min); 0.6 nM in series [7] (Time 60 min); 0.51 nM in series [7] (Time 90 min); 0.46 nM in series [7] (Time 120 min); 0.27 nM in series [7] (Time 240 min). In series [7] (Time 1440 min), the IC50 was 0.25 nM.
For `CCOc1cc(F)c(Cn2nc(-c3ncc(OCCOCCNC(=S)Nc4ccc(-c5c6ccc(=O)cc-6oc6cc(O)ccc56)c(C(=O)O)c4)c(Nc4ccncc4)n3)c3ccccc32)c(F)c1` [Example 5-5-1, 5-[((2-[2-((2-[1-(4-ethoxy-2,6-difluorobenzyl)-1H-indazol-3-yl]-4-(pyridin-4-ylamino)pyrimidin-5-yl)oxy)ethoxy]ethyl)carbamothioyl)amino]-2-(6-hydroxy-3-oxo-3H-xanthen-9-yl)benzoic acid, reference compound], the IC50 is 21 nM in series [3] (setting [8]) and 20.8 nM in series [3] (probe of the competition assay, read-out: inhibits the kinase activity of Bub1, IC50).
`CCOc1cc(F)c(Cn2nc(-c3ncc(OCCO)c(Nc4ccncc4)n3)c3ccccc32)c(F)c1` [Example 5-6-1, 2-({2-[1-(4-ethoxy-2,6-difluorobenzyl)-1H-indazol-3-yl]-4-(pyridin-4-ylamino)pyrimidin-5-yl}oxy)ethanol, reference compound]: the IC50 amounted to 1100 nM in series [4] and 1400 nM in series [5].
